What is called Cmax is the maximum level reached in the sampled fluid or tissue. What is called bioavailability is the share of a dose that reaches the circulation, judged against a reference dose that is usually intravenous. What is called Tmax is the time from dosing to the highest level.

Data set [1] in a line: In vitro compatibility of absorption enhancers with zinc sulfate (Example 16). It is filed as physicochemical. The settings on record: absorption enhancer 10 mg/ml with desmopressin acetate and ZnSO4 5 mg/ml, in 2 ml aqua purificata, visual examination. On the procedure: Solid dry powder mixtures of desmopressin acetate, zinc sulfate and different absorption enhancers were prepared and dissolved in 2 ml aqua purificata.

The nature of data set [2]: pH of dissolved solid powder mixtures (Example 17). In kind it is physicochemical. The settings on record: lactose 50 mg, no buffer.
Data set [3] is described as follows: Compatibility of absorption enhancers with Cu2+ and Cu+ salts (dissolution in aqueous medium). It is filed as physicochemical. The settings on record: absorption enhancer 10 mg/ml. The source says: Various absorption enhancers were screened regarding their compatibility with the trace element copper in the two main oxidation states as Cu^2+ and Cu^+.
Data set [4] is described as follows: Plasma liraglutide levels after mid-jejunum administration (Example 6, FIG. 1). It is filed as in vivo, Sprague Dawley rats. On the procedure:
FIG. 1: Plasma liraglutide levels after intestinal (mid-jejunum) administration of different liraglutide formulations to rats (see Example 6).
Administration into Mid-Jejunum in Rats:
The wound margins were released from the base.
Dosing was performed slowly.
Correctness of the application was checked.
2.4 mg/kg of the polypeptide liraglutide were dosed into the mid-jejunum of anesthetized Sprague Dawley rats in the presence of the zwitter-ionic absorption enhancer lauroyl carnitine chloride (“LCC”) (20 mg/ml) with and without the addition of (i) the trace element CuSO4 (1 mg/ml) and the reducing agent sodium ascorbate (40 mg/ml) or (ii) the trace element ZnSO4 (1 mg/ml) and the reducing agent glutathione (40 mg/ml). All formulations further comprised Na2HPO4 to result in a neutral pH between 7 to 8.

Data set [5] is described as follows: Octreotide pharmacokinetics after s.c. or ileum administration (Example 9). It is filed as in vivo, Sprague Dawley rats. The settings on record: for AUC(0-t): read-out: AUC(0-90) (converted). On the procedure:
TRIS buffer was used to generate a neutral pH.
The octreotide plasma concentrations were determined using a commercial octreotide kit (AB Biolabs, USA, cat. number CEK 0110-01).

The conditions of data set [6]: background statement, unformulated drug; cited from earlier work.
A short description of data set [7]: Vancomycin pharmacokinetics after i.v. or ileum administration (Example 5). In kind it is in vivo, Sprague Dawley rats. The settings on record: for AUC(0-t) / Cmax: anesthetized rats. On the procedure: The vancomycin plasma concentrations were determined on biochemical autoanalyser Hitachi 912 using commercial vancomycin kit VANC2 (Roche Diagnostics GmbH, Germany). The absolute bioavailability (F) was calculated using equation F (%)=(AUCileum/AUCi.v.)×(Dosei.v./Doseileum)×100.

Data set [8] in a line: Human growth hormone formulation, pharmacokinetics after s.c. or ileum administration (Example 13). In kind it is in vivo, Sprague Dawley rats. On the procedure:
The human growth hormone plasma concentrations were determined using commercial growth hormone sensitive human ELISA kit (Biovendor, EU, cat. number RMEE022).

Where [9] appears, read: CuSO4 1 mg/ml, sodium ascorbate 10 mg/ml.
Where [10] appears, read: Sprague Dawley, rat, plasma, other: into distal small intestine (ileum), octreotide 0.92 mg/kg ileum (n = 8), lauroyl carnitine chloride 30 mg/ml, CuSO4 1 mg/ml, sodium ascorbate 30 mg/ml, TRIS 22.5 mg/ml.
Where [11] appears, read: Sprague Dawley, rat, plasma, sc, octreotide 1 mg/kg s.c., anesthetized rats (n = 3).
[12] abbreviates: Cu(I)Cl 1 mg/ml, sodium ascorbate 10 mg/ml.
Where [13] appears, read: copper (I) acetate 1 mg/ml, sodium ascorbate 10 mg/ml.
The mark [14] stands for this setting: Sprague Dawley, rat, plasma, iv, vancomycin 5 mg/kg i.v.
Where [15] appears, read: Sprague Dawley, rat, plasma, vancomycin 20 mg/kg into ileum, lauroyl carnitine 50 mg/ml, CuSO4 1 mg/ml, sodium ascorbate 250 mg/ml.
Setting [16] is: s.c. 1 ml/kg, 0.2 mg/ml human growth hormone, anaesthetized rats.

Counter-ions that a name gives are not always drawn.

Regarding `C[C@H](CCC(=O)O)[C@H]1CC[C@H]2[C@@H]3[C@H](O)C[C@@H]4C[C@H](O)CC[C@]4(C)[C@H]3C[C@H](O)[C@]12C` [Cholic acid], in data set [1], the “Dissolution in aqueous medium (2 ml)” value was “Precipitation”.

As for `NC(=O)CC[C@@H]1NC(=O)[C@H](Cc2ccccc2)NC(=O)[C@H](Cc2ccc(O)cc2)NC(=O)CCSSC[C@@H](C(=O)N2CCC[C@H]2C(=O)N[C@H](CCCN=C(N)N)C(=O)NCC(N)=O)NC(=O)[C@H](CC(N)=O)NC1=O` [Desmopressin, Desmopressin acetate], the “Dissolution pH in 5 ml Aqua purificata” value in data set [2] (CuSO4 10 mg, citric acid 10 mg) stood at 2.6; in data set [2] (CuSO4 10 mg, no absorption enhancer) it was 4.7; in data set [2] (ZnSO4 10 mg, citric acid 10 mg), 2.7; in data set [2] (ZnSO4 10 mg, no absorption enhancer), 5.5.

`O=C(O)CN(CCN(CC(=O)O)CC(=O)O)CC(=O)O` [EDTA, ethylenediaminetetraacetic acid]: the “Dissolution in aqueous medium (2 ml)” value in data set [1] and in data set [3] (setting [9]) was “Clear solution” in each case.

For the compound `CCCCCCCCCCCC(=O)OC(CC(=O)O)C[N+](C)(C)C.[Cl-]` (stereo not drawn) [Lauroyl carnitine HCl], the “Dissolution in aqueous medium (2 ml)” value in data set [1] was “Clear solution”.

As for `CCCCCCCCCCCC(=O)OC(CC(=O)O)C[N+](C)(C)C.[Cl-]` (stereo not drawn) [Lauroyl carnitine], the “Dissolution in aqueous medium (2 ml)” value was “Clear solution” in data set [3] (CuSO4 1 mg/ml, glutathione 10 mg/ml) and “Clear solution” in data set [3] (setting [9]).

As for `CCCCCCCCCCCCCCCC(=O)N[C@@H](CCC(=O)NCCCC[C@H](NC(=O)[C@H](C)NC(=O)[C@H](C)NC(=O)[C@H](CCC(N)=O)NC(=O)CNC(=O)[C@H](CCC(=O)O)NC(=O)[C@H](CC(C)C)NC(=O)[C@H](Cc1ccc(O)cc1)NC(=O)[C@H](CO)NC(=O)[C@H](CO)NC(=O)[C@@H](NC(=O)[C@H](CC(=O)O)NC(=O)[C@H](CO)NC(=O)[C@@H](NC(=O)[C@H](Cc1ccccc1)NC(=O)[C@@H](NC(=O)CNC(=O)[C@H](CCC(=O)O)NC(=O)[C@H](C)NC(=O)[C@@H](N)Cc1cnc[nH]1)[C@@H](C)O)[C@@H](C)O)C(C)C)C(=O)N[C@@H](CCC(=O)O)C(=O)N[C@@H](Cc1ccccc1)C(=O)N[C@H](C(=O)N[C@@H](C)C(=O)N[C@@H](Cc1c[nH]c2ccccc12)C(=O)N[C@@H](CC(C)C)C(=O)N[C@H](C(=O)N[C@@H](CCCNC(=N)N)C(=O)NCC(=O)N[C@@H](CCCNC(=N)N)C(=O)NCC(=O)O)C(C)C)[C@@H](C)CC)C(=O)O` [Liraglutide, liraglutide], the “intestinal absorption of liraglutide (plasma levels, FIG. 1), in words” value in data set [4] (LCC 20 mg/ml + CuSO4 1 mg/ml + sodium ascorbate 40 mg/ml, compared with LCC alone) was “substantially increased the intestinal absorption”. In addition, the “liraglutide absorption (plasma levels, FIG. 1), in words” value in data set [4] (LCC 20 mg/ml + ZnSO4 1 mg/ml + glutathione 40 mg/ml, compared with LCC alone and with the Cu2+ composition) is “improved liraglutide absorption albeit less pronounced”.

Regarding `C[C@@H](O)[C@@H]1NC(=O)[C@H](CCCCN)NC(=O)[C@@H](Cc2c[nH]c3ccccc23)NC(=O)[C@H](Cc2ccccc2)NC(=O)[C@@H](NC(=O)[C@H](N)Cc2ccccc2)CSSC[C@@H](C(=O)N[C@H](CO)[C@@H](C)O)NC1=O` [Octreotide], the peak concentration (Cmax) in data set [5] (setting [10]) was determined as 25.8 ± 14.2 ng/mL; in data set [5] (setting [11]), 154 ± 29.8 ng/mL. For the same compound, the AUC(0-t) in data set [5] (setting [10]) is 25.1 ng·h/mL; in data set [5] (setting [11]), 167 ng·h/mL. Moreover, the F rel in data set [5] (Sprague Dawley, rat, plasma, octreotide 0.92 mg/kg ileum, lauroyl carnitine chloride 30 mg/ml, CuSO4 1 mg/ml, sodium ascorbate 30 mg/ml, TRIS 22.5 mg/ml, vs s.c.) stood at 16.3 ± 7.8%. Further, in data set [5] (octreotide 1 mg/kg s.c. (reference)), the F is 100 ± 18.3%. In data set [5] (octreotide formulation with copper(II) salt, sodium ascorbate, lauroyl carnitine chloride), the “bioavailability, in words” value is “markedly increased bioavailability”. Also, in data set [6], the oral bioavailability result is “less than 1%”.

`CCCCCCCCCC(=O)[O-].[Na+]` [Sodium caprate]: the “Dissolution in aqueous medium (2 ml)” value in data set [1] was “Precipitation”; in data set [3] (setting [12]), “Clear solution”; in data set [3] (setting [9]) it was “Precipitation”; in data set [3] (setting [13]), “Clear solution”.

Consider `CCCCCCCC(=O)[O-].[Na+]` [Sodium caprylate], for which the “Dissolution in aqueous medium (2 ml)” value in data set [1] is listed as “Precipitation”; in data set [3] (setting [12]), “Clear solution”; in data set [3] (setting [9]) it was “Precipitation”; in data set [3] (setting [13]), “Clear solution”.

For the compound `C[C@H](CCC(=O)[O-])[C@H]1CC[C@H]2[C@@H]3[C@H](O)C[C@@H]4C[C@H](O)CC[C@]4(C)[C@H]3C[C@H](O)[C@]12C.[Na+]` [Sodium cholate], the “Dissolution in aqueous medium (2 ml)” value in data set [1] is given as “Precipitation”.

Take `O=C([O-])CC(O)(CC(=O)[O-])C(=O)[O-].[Na+].[Na+].[Na+]` [Sodium citrate]: in data set [3] (setting [9]), the “Dissolution in aqueous medium (2 ml)” value is reported as “Clear solution”.

On to `CCCCCCCCCCCCOS(=O)(=O)[O-].[Na+]` [Sodium dodecyl sulfate], for which the “Dissolution in aqueous medium (2 ml)” value in data set [1] and in data set [3] (setting [9]) was “Clear solution” each time.

For the compound `O=C([O-])c1ccccc1O.[Na+]` [Sodium salicylate], in data set [3] (setting [9]), the “Dissolution in aqueous medium (2 ml)” value is reported as “Clear solution”.

For the compound `CN[C@H](CC(C)C)C(=O)N[C@H]1C(=O)N[C@@H](CC(N)=O)C(=O)N[C@H]2C(=O)N[C@H]3C(=O)N[C@H](C(=O)N[C@H](C(=O)O)c4cc(O)cc(O)c4-c4cc3ccc4O)[C@H](O)c3ccc(c(Cl)c3)Oc3cc2cc(c3O[C@@H]2O[C@H](CO)[C@@H](O)[C@H](O)[C@H]2O[C@H]2C[C@](C)(N)[C@H](O)[C@H](C)O2)Oc2ccc(cc2Cl)[C@H]1O` [Vancomycin, Vancomycin hydrochloride], the AUC(0-t) was 11000 ng·h/mL in data set [7] (setting [14]) and 3000 ng·h/mL in data set [7] (setting [15]). Moreover, the Cmax turned out to be 8800 ± 300 ng/mL in data set [7] (setting [14]) and 2400 ± 200 ng/mL in data set [7] (setting [15]). For the same compound, in data set [7] (Sprague Dawley, rat, plasma, vancomycin 20 mg/kg into ileum, lauroyl carnitine 50 mg/ml, CuSO4 1 mg/ml, sodium ascorbate 250 mg/ml, vs i.v., read-out: F (absolute bioavailability)), the bioavailability was found to be 8 ± 0.4%. The compound further yielded a F in data set [7] (vancomycin 5 mg/kg i.v. (reference)) of 100 ± 7%. Also, in data set [7] (vancomycin formulation with lauroyl carnitine, CuSO4, sodium ascorbate), the “bioavailability in comparison with published F values after oral administration, in words” value is on record as “increased markedly its bioavailability”. Besides, the oral bioavailability in data set [6] was approximately 0.1%.

As for `CCCCCCCCCCCCO[C@@H]1O[C@H](CO)[C@@H](O[C@H]2O[C@H](CO)[C@@H](O)[C@H](O)[C@H]2O)[C@H](O)[C@H]1O` [n-Dodecyl-beta-D-maltoside], the “Dissolution in aqueous medium (2 ml)” value in data set [1] and in data set [3] (setting [9]) was “Clear solution” in each case.

With `CCCCCCCCO[C@@H]1O[C@H](CO)[C@@H](O)[C@H](O)[C@H]1O` [n-Octyl-beta-D-glucopyranoside], the “Dissolution in aqueous medium (2 ml)” value in data set [1] and in data set [3] (setting [9]) was “Clear solution” throughout.

With Human growth hormone [hGH], in data set [8] (setting [16]), the “AUC(0-t)” value was found to be 7630 ± 471 ng·min/mL, the highest concentration (Cmax) is 44 ng/mL and the time to peak (Tmax) was 30 min. Also, the F in data set [8] (s.c. (reference)) amounted to 100 ± 6%.

Consider Methyl-beta-cyclodextrin, for which, in data set [3] (setting [9]), the “Dissolution in aqueous medium (2 ml)” value is recorded as “Clear solution”.

Take Sodium lauroyl sarcosinate: the “Dissolution in aqueous medium (2 ml)” value in data set [3] (setting [9]) was “Precipitation”.
